Source: patent publication US7528164B2, “Substituted 4-aryl-4h-pyrrolo[2,3-h]chromenes and analogs as activators of caspases and inducers of apoptosis and the use thereof” (Cytovia, Inc., priority 2002, dated 2009)

Columns and labels:
[1] = test system: T-47D; test: Caspase cascade activation assay in T-47D cells (N-(Ac-DEVD)-N'-ethoxycarbonyl-R110 fluorogenic substrate); format: cell-based; conditions: T-47D human breast cancer cells, 24 h incubation
Protocol: (§1) Human breast cancer cell lines T-47D and ZR-75-1 were grown according to media component mixtures designated by American Type Culture Collection+10% FCS (Invitrogen Corporation), in a 5% CO2-95% humidity incubator at 37° C. T-47D and ZR-75-1 cells were maintained at a cell density between 30 and 80% confluency at a cell density of 0.1 to 0.6×10^6 cells/mL. Cells were harvested at 600×g and resuspended at 0.65×10^6 cells/mL into appropriate media+10% FCS. An aliquot of 45 μl of cells was added to a well of a 96-well microtiter plate containing 5 μl of a 10% DMSO in RPMI-1640 media solution containing about […] of 2-amino-3-cyano-4-(5-methyl-pyridin-3-yl)-7-methyl-4H-pyrrolo[2,3-h]chromene (Example 10) or other test compound (0.016 to 1 μM final). An aliquot of 45 μl of cells was added to a well of a 96-well microtiter plate containing 5 μl of a 10% DMSO in RPMI-1640 media solution without test compound as the control sample. The samples were mixed by agitation and then incubated at 37° C. for 24 h in a 5% CO2-95% humidity incubator. After incubation, the samples were removed from the incubator and 50 μl of a solution containing 20 μM of N-(Ac-DEVD)-N′-ethoxycarbonyl-R110 (SEQ ID No:1) fluorogenic substrate (Cytovia, Inc.; U.S. Pat. No. 6,335,429), 20% sucrose (Sigma), 20 mM DTT (Sigma), 200 mM NaCl (Sigma), 40 mM Na PIPES buffer pH 7.2 (Sigma), and 500 μg/ml lysolecithin (Calbiochem) was added. The samples were mixed by agitation and incubated at room temperature. Using a fluorescent plate reader (Model 1420 Wallac Instruments), an initial reading (T=0) was made approximately 1-2 min after addition of the substrate solution, employing excitation at 485 nm and emission at 530 nm, to determine the background fluorescence of the control sample. After the 3 h incubation, the samples were read for fluorescence as above (T=3 h).
(§2) The Relative Fluorescence Unit values (RFU) were used to calculate the sample readings as follows: RFU(T=3h)−Control RFU(T=0)=Net RFU(T=3h) The activity of caspase cascade activation was determined by the ratio of the net RFU value for 2-amino-3-cyano-4-(5-methyl-pyridin-3-yl)-7-methyl-4H-pyrrolo[2,3-h]chromene or other test compound to that of control samples. The EC50 (nM) was determined by a sigmoidal dose-response calculation (Prism 2.0, GraphPad Software Inc.).

[2] = test system: ZR-75-1; test: Caspase cascade activation assay in ZR-75-1 cells (N-(Ac-DEVD)-N'-ethoxycarbonyl-R110 fluorogenic substrate); format: cell-based; conditions: ZR-75-1 human breast cancer cells, 24 h incubation
Protocol: as §1, §2

[3] = ratio of net RFU of test compound to control

COc1cc(C2C(C#N)=C(N)Oc3c2ccc2c3ccn2C(C)C)cc(Br)c1OC (stereo not shown) [Example 43, 2-Amino-3-cyano-4-(3-bromo-4,5-dimethoxy-phenyl)-7-isopropyl-4H-pyrrolo[2,3-h]chromene]
EC50 ([1]; T47D, sigmoidal dose-response, read-out: Caspase potency EC50): 0.058 µM | Caspase activity (Ratio) [1, 3]: 2.5 | Caspase activity (Ratio) [2, 3]: 6.3 | EC50 ([2]; sigmoidal dose-response, read-out: Caspase potency EC50): 0.055 µM
